Test results from patent US10851112B2, “Anti-HCMV virus compound” (MEDSHINE DISCOVERY INC., priority 2016, dated 2020).

Assays:
[1] = Plasma protein binding rate test, equilibrium dialysis, CD-1 mouse plasma; type: in vitro ADME; conditions: mouse plasma (M), equilibrium dialysis 37° C. 4 hours, read-out: plasma protein binding PPB bound (%) (converted)
Protocol: (§1) Plasma Protein Binding Rate Test of the Compound
(§2) The protein binding rate of the test compound in CD-1 mice, SD rats, and human plasma was evaluated by equilibrium dialysis. The test compound was diluted into the plasma of the above three species respectively to prepare a sample with a final concentration of 2 μM. The sample was added to a 96-well equilibrium dialysis device, and dialyzed using a phosphate buffer solution at 37° C. for 4 hours. Warfarin was used as a control compound in the experiment. The concentration of the test compound and warfarin in the plasma and the buffer was determined by LC-MS/MS.

[2] = Plasma protein binding rate test, equilibrium dialysis, human plasma; type: in vitro ADME; conditions: equilibrium dialysis 37° C. 4 hours, read-out: plasma protein binding PPB bound (%) (converted)
Protocol: as §1, §2

[3] = Plasma protein binding rate test, equilibrium dialysis, SD rat plasma; type: in vitro ADME; conditions: rat plasma (R), equilibrium dialysis 37° C. 4 hours, read-out: plasma protein binding PPB bound (%) (converted)
Protocol: as §1, §2

[4] = system: US3-6-EGFP-HCMV-AD169 viruses; assay: Fluorescence decay assay against human cytomegalovirus; type: cell-based, human cytomegalovirus (HCMV); conditions: Human betaherpesvirus 5, AD169, MRC5, 240 h
Protocol: Fluorescence Decay Assay Against Human Cytomegalovirus
The antiviral activity of the compound against human cytomegalovirus (HCMV) was evaluated by determining the half maximal effective concentration (EC50) of the compound. The HCMV used in this assay was inserted with enhanced green fluorescent protein (EGFP) by gene recombination, so the viral replication in cells could be reflected by the expression level of GFP. The inhibitory activity of the compound on HCMV GFP expression was evaluated by determining the fluorescence intensity in the wells of different concentrations of the compound using a high content cell analysis platform Acumen eX3.
Fluorescence Decay Assay Against HCMV
MRC5 cells were inoculated into a black 96-well cell culture plate at a density of 20,000 cells per well. The plate was incubated overnight in a 37° C., 5% CO2 incubator. US3-6-EGFP-HCMV-AD169 viruses were added to the cell culture well at a certain MOI (0.003-0.1) and the plate was incubated for 3 hours in a 37° C., 5% CO2 incubator. After adsorption of viruses, the medium containing viruses was aspirated and 200 μL of cell culture medium containing different concentrations of the compound (4-fold dilution, 6 test concentrations) was added. The final concentration of DMSO in the medium was 1%. Virus control wells (with DMSO added, but no compound was added) and inhibition control wells (with a high concentration of control compound added) were set. The cell plate was incubated for 10 days in a 37° C., 5% CO2 incubator and the liquid was renewed on the 4th day and 7th day. After 10 days of culture, the fluorescence intensity was determined using a high content cell analysis platform Acumen eX3 (TTP LabTech). The original data was used for calculating the antiviral activity of the compound.
The inhibition % was imported into GraphPad Prism software for data processing to give a corresponding dose-response curve for the compound and the EC50 of the test compound was obtained.

[5] = system: HCMV viruses (strain: GFP-AD169); assay: Human cytomegalovirus (HCMV) transplantation model in mouse; type: in vivo; conditions: NOD SCID mice, oral 8 mg/kg once a day, 1st to 9th day, plaque detection in gelatin sponge
Protocol: Human Cytomegalovirus (HCMV) Transplantation Model in Mouse
A gelatin sponge containing HCMV was transplanted into mice. After 9 days of continuous administration, the gelatin sponge was collected for plaque detection. The anti-HCMV effect of the compound in the model was evaluated by determining the amount of HCMV in the gelatin sponge.
The animals selected for the experiment were NOD SCID mice (purchased from Shanghai Slac Laboratory Animal Co., Ltd.), 5 weeks, male, 5 animals per group. The day when the mice were transplanted with gelatin sponge was set to be day 0. Human foreskin fibroblasts (HFF, MOI=0.03) were previously infected with HCMV viruses (strain: GFP-AD169). The HMV cells infected with HCMV were added to a 1 cm^2 gelatin sponge for incubation. Animals were anesthetized by intraperitoneal injection of pentobarbital sodium at a dose of 75 mg/kg (10 mL/kg). After the animals entered deep anesthesia, the prepared gelatin sponge was subcutaneously transplanted into the back of the mice. From 1st day to 9th day, the mice were orally administered with the test compound at a dose of 8 mg/kg (10 mL/kg) once a day. At 4 hours after the administration on the 9th day, the gelatin sponge was taken out and digested. The plaque was detected.

SMILES	fraction unbound at 4 h, 2 μM [1]	fraction unbound at 4 h, 2 μM [2]	fraction unbound at 4 h, 2 μM [3]	EC50 [4] [nM]	decrease in HCMV viral load [5] [log PFU/mL]
COc1cccc(N2CCN(C3=Nc4c(csc4F)[C@H](CC(=O)O)N3c3cc(C(F)(F)F)ccc3OC)C[C@H]2C)c1 (single isomer, unassigned) [WX-132]	0.011	0.022	0.017	0.15	
COc1cc(N2CCN(C3=Nc4ccsc4[C@H](CC(=O)O)N3c3cc(C(F)(F)F)ccc3OC)CC2)ccn1 (single isomer, unassigned) [WX-109]	0.055	0.097	0.108	4	
COc1cc(N2CCN(C3=Nc4c(csc4F)[C@H](CC(=O)O)N3c3cc(C(F)(F)F)ccc3OC)C[C@H]2C)ncn1 (single isomer, unassigned) [WX-149]	0.002	0.024	0.017	0.67	
COc1ccnc(N2CCN(C3=Nc4c(csc4F)[C@H](CC(=O)O)N3c3cc(C(F)(F)F)ccc3OC)C[C@H]2C)c1 (single isomer, unassigned) [WX-145]	0.001	0.023	0.014	2	
COc1cccc(N2CCN(C3=Nc4ccsc4[C@H](CC(=O)O)N3c3cc(C(F)(F)F)ccc3OC)C[C@H]2C)c1 (single isomer, unassigned) [WX-136]				0.17	2.33
COc1cc(N2CCN(C3=Nc4c(csc4F)[C@H](CC(=O)O)N3c3cc(C(F)(F)F)ccc3OC)C[C@H]2C)ccn1 (single isomer, unassigned) [WX-147]	0.002	0.018	0.014	0.17	
COc1cc(N2CCN(C3=Nc4ccsc4[C@H](CC(=O)O)N3c3cc(C(F)(F)F)ccc3OC)C[C@H]2C)ncn1 (single isomer, unassigned) [WX-143]	0.015	0.069	0.066	0.89	
COc1cc(N2CCN(C3=Nc4c(C)csc4[C@H](CC(=O)O)N3c3cc(C(F)(F)F)ccc3OC)C[C@H]2C)ccn1 (single isomer, unassigned) [WX-153]	0.011	0.019	0.02	0.26	
COc1cc(N2CCN(C3=Nc4cscc4[C@H](CC(=O)O)N3c3cc(C(F)(F)F)ccc3OC)C[C@H]2C)ccn1 (single isomer, unassigned) [WX-151]	0.011	0.047	0.05	0.503	2.30
COc1cc(N2[C@H](C)CN(C3=Nc4ccsc4[C@H](CC(=O)O)N3c3cc(C(F)(F)F)ccc3OC)C[C@@H]2C)ccn1 (single isomer, unassigned) [WX-161]	0.004	0.02	0.023	0.317	
COc1cccc(N2CCN(C3=Nc4ccsc4[C@H](CC(=O)O)N3c3cc(C(F)(F)F)ccc3OC)CC2)c1 (single isomer, unassigned) [WX-088]	0.022	0.024	0.028	2	
COc1ccnc(N2CCN(C3=Nc4ccsc4[C@H](CC(=O)O)N3c3cc(C(F)(F)F)ccc3OC)C[C@H]2C)c1 (single isomer, unassigned) [WX-139]	0.014	0.06	0.041	3	
COc1cc(N2CCN(C3=Nc4ccsc4[C@H](CC(=O)O)N3c3cc(C(F)(F)F)ccc3OC)C[C@H]2C)ccn1 (single isomer, unassigned) [WX-141]	0.017	0.06	0.061	0.2	2.38
COc1cccc(N2CCN(C3=Nc4cscc4[C@H](CC(=O)O)N3c3cc(C(F)(F)F)ccc3OC)C[C@H]2C)c1 (single isomer, unassigned) [WX-204]				0.172	
COc1cc(N2CCN(C3=Nc4c(csc4F)[C@@H](CC(=O)O)N3c3cc(C(F)(F)F)ccc3OC)C[C@H]2C)ncn1 (single isomer, unassigned) [WX-150]				20	
COc1cccc(N2CCN(C3=Nc4c(csc4F)[C@@H](CC(=O)O)N3c3cc(C(F)(F)F)ccc3OC)C[C@H]2C)c1 (single isomer, unassigned) [WX-131]				55	
COc1ccc(C(F)(F)F)cc1N1C(N2CCC(F)(c3ccc(F)cc3)CC2)=Nc2c(csc2F)[C@@H]1CC(=O)O (single isomer, unassigned) [WX-099]				24	
COc1ccc(C(F)(F)F)cc1N1C(N2CCN(c3ccc(F)cc3)CC2)=Nc2c(csc2F)[C@@H]1CC(=O)O (single isomer, unassigned) [WX-112]				1	
